Measurements reported in paper PMC6982702, “Extensive Structure Modification on Luteolin-Cinnamic Acid Conjugates Leading to BACE1 Inhibitors with Optimal Pharmacological Properties” (Molecules, 2019).
Values joined by “and” are separate entries in the source; they are usually repeats but may differ in a detail not shown here. Equal values may be shown once. Read-outs that look alike come from different tables or passages of the source.

Tests used:
Renin = molecular target: T1, Renin (Homo sapiens, UniProt P00797); assay: Enzyme selectivity: renin inhibition; type: biochemical
T1 sequence (P00797 67-406): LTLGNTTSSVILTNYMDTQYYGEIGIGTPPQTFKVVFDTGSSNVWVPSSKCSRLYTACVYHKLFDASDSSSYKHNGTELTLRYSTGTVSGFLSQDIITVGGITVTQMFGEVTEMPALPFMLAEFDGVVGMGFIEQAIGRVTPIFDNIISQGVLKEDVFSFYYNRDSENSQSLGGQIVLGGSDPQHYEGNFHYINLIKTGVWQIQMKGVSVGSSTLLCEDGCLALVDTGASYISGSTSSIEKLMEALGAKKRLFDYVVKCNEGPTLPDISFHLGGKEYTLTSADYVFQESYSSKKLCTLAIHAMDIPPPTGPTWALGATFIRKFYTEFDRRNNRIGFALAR
Excerpt: (§1) As BACE1 is a member of aspartyl protease family, its selective inhibition over other closely related proteases is required to avoid possible severe side effects.

BACE2 = molecular target: T2, BACE2 (Homo sapiens, UniProt Q9Y5Z0); assay: Enzyme selectivity: BACE2 inhibition; type: biochemical
T2 sequence (Q9Y5Z0 63-518): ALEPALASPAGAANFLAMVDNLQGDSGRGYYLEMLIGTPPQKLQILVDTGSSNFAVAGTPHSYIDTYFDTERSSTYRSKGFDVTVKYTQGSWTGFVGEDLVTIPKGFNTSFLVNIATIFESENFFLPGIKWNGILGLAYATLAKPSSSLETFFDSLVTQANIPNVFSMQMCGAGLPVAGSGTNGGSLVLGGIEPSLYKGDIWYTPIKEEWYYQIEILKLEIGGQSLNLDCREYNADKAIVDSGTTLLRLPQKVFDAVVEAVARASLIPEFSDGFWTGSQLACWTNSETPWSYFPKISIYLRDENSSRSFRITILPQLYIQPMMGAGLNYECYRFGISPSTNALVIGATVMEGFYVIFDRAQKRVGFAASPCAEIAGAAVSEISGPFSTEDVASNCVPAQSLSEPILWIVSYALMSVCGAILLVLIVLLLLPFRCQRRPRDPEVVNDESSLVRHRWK
Excerpt: as §1

BACE1 [1] = molecular target: T3, BACE1 (Homo sapiens, UniProt P56817); assay: Kinetic analysis of BACE1 inhibition (Dixon plot); type: biochemical; details: for Ki: BACE1 substrate 250, 500, 750 nM
T3 construct: purchased PanVera Co. (Invitrogen, USA)
T3 sequence (P56817 46-501): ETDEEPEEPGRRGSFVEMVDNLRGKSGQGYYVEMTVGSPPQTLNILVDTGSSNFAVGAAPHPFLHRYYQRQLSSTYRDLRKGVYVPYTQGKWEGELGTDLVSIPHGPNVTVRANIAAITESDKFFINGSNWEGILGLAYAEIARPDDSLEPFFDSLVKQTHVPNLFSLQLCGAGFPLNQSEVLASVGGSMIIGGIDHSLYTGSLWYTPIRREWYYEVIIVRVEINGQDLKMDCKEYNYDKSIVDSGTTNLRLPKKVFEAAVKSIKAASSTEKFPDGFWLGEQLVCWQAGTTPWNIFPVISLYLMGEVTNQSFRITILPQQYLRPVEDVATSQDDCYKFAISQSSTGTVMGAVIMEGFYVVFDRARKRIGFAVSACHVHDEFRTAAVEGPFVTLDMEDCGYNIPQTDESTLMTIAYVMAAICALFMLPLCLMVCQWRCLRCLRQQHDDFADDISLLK
Experimental: The Dixon plot was used to determine the kinetics of 4l, 7c, and 7k inhibiting BACE1.
The Dixon plot is a graphical method (plot of 1/enzyme velocity (1/V) against inhibitor concentration (I)) for determination of the type of enzyme inhibition, which was used to determine the dissociation or inhibition constant (Ki) for the enzyme inhibitor complex. The Dixon plots for BACE1 inhibition were obtained in the presence of various concentrations of BACE1 substrate (250, 500, 750 nM) and the concentrations of 4l, 7c, and 7k as follows: 0.1 µM, 0.5 µM, 1.0 µM. In this way, the inhibition constants (Ki) of 4e were determined by interpretation of Dixon plots, where the value of the x-axis represents −Ki when 1/V = 0. […]
The Dixon plot is a graphical method [plot of 1/enzyme velocity (1/V) against inhibitor
concentration (I)] for determination of the type of enzyme inhibition and was used to determine the
dissociation or inhibition constant (Ki) for the enzyme inhibitor complex (Cornish-Bowden, 1974).
The Dixon plots for BACE1 inhibition were obtained in the presence of various concentrations of […]
BACE1 substrate (250, 500, 750 nM) and the concentrations of 4l, 7c and 7k as follows: 0.1 µM, 0.5 µM,
1.0µM. In this way, the inhibition constants (Ki) of 4e were determined by in terpretation of Dixon
plots, w here t he value of the X -axis represents -Ki when 1/V=0.
Figure 3. Kinetic analysis of 4l.
Figure 4. Kinetic anal ysis of 7k. […]
The BACE1 FRET assay kit was purchased from the PanVera Co. (Invitroge, USA). The assay
was carried out according to the supplied manual with modifications. Briefly, assays were
performed in triplicate in 384-well black plates with a mixture of 5 μL of BACE1 (1.0 U/ml), 5 μL of
the substrate (750 nM, Rh-[…]- Quencherin 50 mM, ammonium bicarbonate), and 5 μL of
compound dissolved in 10% DMSO. The fluorescence intensity was measured with a TECAN
infinite 200 microplate reader for 60 min at 25 °C in the dark. The mixture was irradiated at 544 nm
and the emission intensity recorded at 590 nm. The percent inhibition (%) was obtained by the
following equation: Inhibition % = (1-SS/SC) × 100%, where SC is the slope of fluorescence change of
the control (enzyme, buffer, and substrate) during 60 min, and SS is the slope of fluorescence change
of the tested samples (enzyme, sample solution, and substrate) during 60 min of measurement. […]

MTT cytotoxicity assay = type: cell-based; details: human, 24 h exposure
Experimental: It is crucial for the BACE1 inhibitors to exert their activities at sub-toxic concentration, and thus their cytotoxicity was assessed in HEK293 cells by 3-[4,5-dimethylthiazol-2-yl]-2,5-diphenyl-tetrazolium bromide (MTT) assays (Table 5). […] Unfortunately, there was no obvious relationship between the structures and their cytotoxicity.
The cytotoxicity was examined by using 3-[4,5-dimethylthiazol-2-yl]-2,5-diphenyl-tetrazolium bromide (MTT) assay. HEK293T cells were seeded with complete DMEM into 96-well plates ([…], 100 µL/well), incubated at 37 °C in a humidified atmosphere with 5% CO2 for 24 h. All the compounds were diluted with the phenol red-free DMEM at a specific concentration. After 24 h of exposure to different concentrations of compound, the supernatant was removed and then 20% (v/v) MTT (5 mg/mL) diluted with fresh culture medium was added into each well and incubated for 4 h. Cells were lysed with 100 μL dimethyl sulfoxide (DMSO) and shaken for 10 min at room temperature. The absorbance in each well was detected at a wavelength of 490 nm using a Universal Microplate Reader (ELX 800 lv, BIO-TEK Instruments, Inc., Winooski, VT, USA).

BACE1 [2] = molecular target: T3, BACE1; assay: In vitro BACE1 FRET enzyme assay; type: biochemical; details: for inhibition at 10 µM: read-out: Inhibition Rate at 10 μM (%); for selectivity on BACE1 over BACE2 and renin: from IC50 values of Table 6
Experimental: The BACE1 FRET assay kit was purchased from the PanVera Co. (Invitrogen, USA). The assay was carried out according to the supplied manual with modifications. […] The fluorescence intensity was measured with a TECAN infinite 200 microplate reader for 60 min at 25 °C in the dark. […] The percent inhibition (%) was obtained by the following equation: Inhibition % = (1 −SS/SC) × 100%, where SC is the slope of fluorescence change of the control (enzyme, buffer, and substrate) during 60 min, and SS is the slope of fluorescence change of the tested samples (enzyme, sample solution, and substrate) during 60 min of measurement. IC50 values were calculated from the nonlinear curve fitting of percentage inhibition against inhibitor concentration using Prism 3.0 software (GraphPad Software, San Diego, CA, USA).

[3] = system: Aβ-38, Aβ-40, Aβ-42 in HEK293 cells stably overexpressing human APP695; assay: Inhibition of Aβ production in APP overexpressed cells (V-Plex Aβ Peptide Panel immunoassay); type: cell-based; details: for Aβ-42 levels / Aβ levels: DMSO = 100%; for Aβ levels: higher concentrations (10, 25, and 50 µM), 23 h
Experimental: To assess the cellular BACE1 inhibitory activity of the conjugates, 7a–d, 7i, and 7k were incubated in APP overexpressing HEK293 cells and their inhibition on the three main Aβ species Aβ-38, Aβ-40, and Aβ-42—the main amyloidogenic peptides produced by BACE1 cleavage of APP peptide—was measured by an ELISA-like immunoassay method. Aβ levels were normalized to the protein concentration in the lysate in order to rule out differences in total cell number per well of the culture plate. Additionally, the normalized Aβ level was set to 100% for the DMSO-treated control.
HEK293 cells stably overexpressing human APP695 were plated in a poly-D-lysine-coated 96-well plates and grown to a density of 80–90%. Compounds were dissolved in DMSO to make a 10 mM stock solution and diluted in DMEM complete medium to the final concentrations: 0.1, 1.0, 5.0, 10.0, 25.0, and 50.0 µM. DMSO was used at a 1:200 dilution as a negative control and a commercially available BACE1 inhibitor (C3, also known as BACE inhibitor IV) as a positive control. After 23 h of incubation, the cell supernatants were directly used for measurement in the V-Plex Aβ Peptide Panel 1 (6E10) Kit from Meso Scale Diagnostics (Rockville, MD, USA) for measuring Aβ38, −40, and −42 simultaneously. Cells were washed with PBS and lysed in Triton X100 lysis buffer for subsequent protein concentration (BCA) measurement.

BACE1 [4] = molecular target: T3, BACE1; parameters: method as in PMID 31557620; details: previous work ref 13; cited from earlier work
[5] = HEK293 cells (method text: HEK293T)
[6] = BACE1 FRET assay, 10 μM compound

Row | Structure (SMILES) | IC50 (Renin) | IC50 (BACE2) | mode of BACE1 inhibition (BACE1 [1]) | Ki (BACE1 [1]) | IC50 at 24 h (MTT cytotoxicity assay; [5]) | IC50 (BACE1 [2]; BACE1 FRET assay) | inhibition at 10 µM (BACE1 [2]; [6]) | enhancement of BACE1 inhibitory activity compared with the flavone segment 1 or conjugate 3 (BACE1 [2]; from IC50) | selectivity on BACE1 over BACE2 and renin (BACE1 [2]) | Aβ-42 levels [3] | Aβ levels [3] | IC50 at 24 h (MTT cytotoxicity assay; HEK293 cells (method text: HEK293T cells)) | Aβ-42 level ([3]; 25 µM) | mode of BACE1 inhibition (BACE1 [4]) | Inhibition Rate at 10 μM (%) (BACE1 [2]; BACE1 FRET assay, 10 μM compound, 10 µM)
1 | O=C(/C=C/c1cccnc1)OCCOc1cc(O)c2c(=O)cc(-c3ccc(O)c(O)c3)oc2c1 [Compound 7k, (E)-2-((2-(3,4-dihydroxyphenyl)-5-hydroxy-4-oxo-4H-chromen-7-yl)oxy)ethyl 3-(pyridin-3-yl)acrylate] | > 100 µM | > 100 µM | mix-competitive mode | 0.32 µM | > 100 µM | 0.15 µM | 54.4 ± 3.5% | ~10 fold | 2–3 orders of magnitude | increased Aβ-42 levels | did not reduce Aβ levels | – | – | – | –
2 | O=C(/C=C/c1ccc(O)cc1)NCCOc1cc(O)c2c(=O)cc(-c3ccc(O)c(O)c3)oc2c1 [Compound 8] | 25.4 µM | > 100 µM | – | – | > 100 µM | 4.15 ± 1.97 µM | 59.5 ± 4.4% | – | – | – | – | – | – | – | –
3 | COc1ccc(/C=C/C(=O)OCCOc2cc(O)c3c(=O)cc(-c4ccc(O)c(O)c4)oc3c2)cc1 [Compound 7i, (E)-2-((2-(3,4-dihydroxyphenyl)-5-hydroxy-4-oxo-4H-chromen-7-yl)oxy)ethyl 3-(4-methoxyphenyl)acrylate] | – | – | – | – | 3.94 µM | – | 28.9 ± 4.4% | – | – | increased Aβ-42 levels | did not reduce Aβ levels | – | – | – | –
4 | O=C(/C=C/c1cccc(O)c1)OCCOc1cc(O)c2c(=O)cc(-c3ccc(O)c(O)c3)oc2c1 [Compound 7c] | > 100 µM | > 100 µM | non-competitive inhibitor | 1.2 µM | – | 1.44 ± 0.18 µM | 66.7 ± 8.3% | – | 2–3 orders of magnitude | – | – | 90 µM | obvious inhibition | – | –
5 | O=C(/C=C/c1ccc(O)cc1)OCCOc1cc(O)c2c(=O)cc(-c3ccc(O)c(O)c3)oc2c1 [Compound 3] | – | – | – | – | 62.4 µM | 2.19 µM and 1.87 µM | 64.8 ± 6% | – | – | – | – | – | – | non-competitive inhibitor | –
6 | O=c1cc(-c2ccc(O)c(O)c2)oc2cc(O)cc(O)c12 [Compound 1, luteolin] | – | – | – | – | 39.8 µM | – | 68.6 ± 8.9% | – | – | – | dose-dependently reduced Aβ levels | – | – | – | 64.8 ± 6.0%
7 | O=C(/C=C/c1ccc(O)cc1)OCCOc1cccc2c(=O)cc(-c3ccc(O)c(O)c3)oc12 [Compound 4l] | – | – | mix-competitive mode | 0.8 µM | – | 2.47 ± 0.17 µM | 58.4 ± 10.2% | – | – | – | – | – | – | – | –
